Counter-ions that a name gives are not always drawn.
How the values were obtained:
[1] = system: splenic T cells from C57BL/6 mice; assay: Activation of primary mouse T cells (CD25, CD69); format: cell-based; conditions: C57BL/6, 8 h
Experimental: Spleens were harvested from female mice, perfused with collagenase, and incubated at 37° C. with 5% CO2 for 30 min. After this time, the spleens were homogenized. Cells that passed through a 100 μm cell strainer were collected and washed with RPMI. T cells were isolated from the splenocytes using the EasySepTM Mouse T cell Isolation Kit (19851; […]) according to manufacturer's instructions. 96-well plates were coated with anti-CD3 (1:200; BioXcell) and anti-CD28 (1:500; 302933; BioLegend) in PBS (100 μL/well) overnight at 4° C. The plates were then washed twice with PBS and to each well was added 500,000 primary T cells in 100 μL of RPMI supplemented with 10% FBS, glutamine, and Pen-Strep. Cells were then treated with 100 μL of media containing compound at the indicated concentrations (final well volume of 200 μL). Cells were left at 37° C. in a 5% CO2 incubator for the indicated periods of time and harvested by centrifugation (500 g, 8 min, 4° C.), followed by washing with PBS. […] Data was then analyzed with FlowJo software (Treestar Inc.). […]

RRAGC C377 (Q9HB90) = RRAGC C377 (Q9HB90) (Homo sapiens, UniProt Q9HB90); assay: Competitive isoTOP-ABPP in situ; format: cell-based; conditions: fragment 2 at 200 μM, MDA-MB-231 cells
[2] = system: cysteines in MDA-MB-231 and Ramos cell proteomes; assay: Competitive isoTOP-ABPP in cell lysates (in vitro): proteomic reactivity / liganded cysteine rate; format: binding, human; conditions: fragment 500 μM; % of quantified cysteines with R ≥4
Experimental: All cell lines were obtained from ATCC, were used with a low passage number and were grown at 37° C. with 5% CO2. MDA-MB-231 cells and HEK-293T cells were grown in DMEM supplemented with 10% fetal bovine serum, penicillin, streptomycin and glutamine. Jurkat, Ramos and MUM2C cells were grown in RPMI-1640 medium supplemented with 10% fetal bovine serum, penicillin and streptomycin. For in vitro labeling, cells were grown to 100% confluence for MDA-MB-231 cells or until cell density reached 1.5 million cells/mL for Ramos and Jurkat cells. […] Cell pellets were lysed by sonication and fractionated (100,000 g, 45 min) to yield soluble and membrane fractions, which were then adjusted to a final protein concentration of 1.5 mg/mL for proteomics experiments and 1 mg/mL for gel-based ABPP experiments. The soluble lysate was prepared fresh from frozen pellets directly before each experiment. Protein concentration was determined using the Bio-Rad DC™ protein assay kit.
For each sample, 100 μL of streptavidin-agarose beads slurry (Pierce) was washed in 10 mL PBS and then resuspended in 5 mL PBS. The SDS-solubilized proteins were added to the suspension of streptavidin-agarose beads and the bead mixture was rotated for 3 h at ambient temperature. After incubation, the beads were pelleted by centrifugation (1,400 g, 3 min) and were washed (2×10 mL PBS and 2×10 mL water).
The beads were transferred to eppendorf tubes with 1 mL PBS, centrifuged (1,400 g, 3 min), and resuspended in PBS containing 6 M urea (500 μL). To this was added 10 mM DTT (25 μL of a 200 mM stock in water) and the beads were incubated at 65° C. for 15 mins. 20 mM iodoacetamide (25 μL of a 400 mM stock in water) was then added and allowed to react at 37° C. for 30 mins with shaking. The bead mixture was diluted with 900 μL PBS, pelleted by centrifugation (1,400 g, 3 min), and resuspended in 200 μL PBS. To this was added 1 mM CaCl2 ([…]) and trypsin (2 μg, Promega, sequencing grade) and the digestion was allowed to proceed overnight at 37° C. with shaking. The beads were separated from the digest with Micro Bio-Spin columns (Bio-Rad) by centrifugation (1,000 g, 1 min), washed (2×1 mL PBS and 2×1 mL water) and then transferred to fresh eppendorfs with 1 mL water. The washed beads were washed once further in 140 μL TEV buffer (50 mM Tris, pH 8, 0.5 mM EDTA, 1 mM DTT) and then resuspended in 140 μL TEV buffer. 5 μL TEV protease (80 μM) was added and the reactions were rotated overnight at 29° C. The TEV digest was separated from the beads with Micro Bio-Spin columns by centrifugation (1,400 g, 3 min) and the beads were washed once with water (100 μL). The samples were then acidified to a final concentration of 5% (v/v) formic acid and stored at −80° C. prior to analysis.

Sequence of RRAGC C377 (Q9HB90) (Q9HB90 2-399 limits assumed): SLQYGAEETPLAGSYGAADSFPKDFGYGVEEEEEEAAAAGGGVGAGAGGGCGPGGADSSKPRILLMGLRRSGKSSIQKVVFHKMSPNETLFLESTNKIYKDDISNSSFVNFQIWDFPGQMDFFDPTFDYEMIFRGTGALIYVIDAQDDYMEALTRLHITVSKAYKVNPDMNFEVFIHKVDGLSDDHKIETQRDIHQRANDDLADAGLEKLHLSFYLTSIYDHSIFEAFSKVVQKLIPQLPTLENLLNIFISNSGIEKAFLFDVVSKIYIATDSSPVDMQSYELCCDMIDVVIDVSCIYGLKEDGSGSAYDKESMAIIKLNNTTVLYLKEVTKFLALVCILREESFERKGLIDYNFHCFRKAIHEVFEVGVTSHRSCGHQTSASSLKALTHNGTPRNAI
Sequence of RRAGC C377 (Q9HB90) (Q7L523 whole entry partner, the tested form may be a part): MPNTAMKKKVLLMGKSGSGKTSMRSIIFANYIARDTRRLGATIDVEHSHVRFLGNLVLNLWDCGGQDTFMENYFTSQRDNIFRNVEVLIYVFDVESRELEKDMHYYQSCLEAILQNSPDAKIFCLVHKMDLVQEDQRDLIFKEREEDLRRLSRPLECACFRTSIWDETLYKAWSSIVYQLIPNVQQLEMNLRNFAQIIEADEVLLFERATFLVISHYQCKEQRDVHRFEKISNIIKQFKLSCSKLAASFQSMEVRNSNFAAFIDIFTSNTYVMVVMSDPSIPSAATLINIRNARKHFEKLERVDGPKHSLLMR

COC(=O)/C=C/C(=O)OC [DMF, dimethyl fumarate]
activation of primary mouse splenic T cells [1]: suppressed

COc1ccc2c(c1)CCCN2C(=O)CCl [compound 2]
isoTOP-ABPP reactivity profile (ratio) 2_200 μM_in-situ_231 (RRAGC C377 (Q9HB90)): 3.3

O=C(CCl)Nc1cc(C(F)(F)F)cc(C(F)(F)F)c1 [compound 3]
proteomic reactivity value (liganded cysteine rate) [2]: 15%

Source: patent publication US10670605B2, “Cysteine reactive probes and uses thereof” (The Scripps Research Institute, priority 2015, dated 2020)
